According to PubChem BioAssay (NCI):
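1) Cells in 96-well plates. 2) Compound, 48 h, 5 concentrations. 3) Linear interpolation between surrounding doses. 4) Unreached endpoint = highest concentration. At the GI50, growth is halved. TGI: total growth inhibition.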

Assays:
Assay in all cases: NCI-60 cell line screen, 48 h
SK-MEL-2 melanoma = system: SK-MEL-2 melanoma
MDA-MB-231 breast = system: MDA-MB-231 breast
M14 melanoma = system: M14 melanoma
T-47D breast = system: T-47D breast
SF-268 CNS = system: SF-268 CNS
SK-MEL-5 melanoma = system: SK-MEL-5 melanoma
PC-3 prostate = system: PC-3 prostate
U251 CNS = system: U251 CNS
HCC-2998 colon = system: HCC-2998 colon
NCI-H23 lung = system: NCI-H23 lung
KM12 colon = system: KM12 colon
BT-549 breast = system: BT-549 breast
CAKI-1 renal = system: CAKI-1 renal
K-562 leukemia = system: K-562 leukemia
RXF 393 renal = system: RXF 393 renal
HCT-15 colon = system: HCT-15 colon
HOP-92 NSCLC = system: HOP-92 NSCLC
OVCAR-8 ovarian = system: OVCAR-8 ovarian
SF-539 CNS = system: SF-539 CNS
A549 NSCLC = system: A549 NSCLC
MOLT-4 leukemia = system: MOLT-4 leukemia
LOX IMVI melanoma = system: LOX IMVI melanoma
OVCAR-5 ovarian = system: OVCAR-5 ovarian
NCI/ADR-RES ovarian = system: NCI/ADR-RES ovarian
CCRF-CEM leukemia = system: CCRF-CEM leukemia
HS 578T breast = system: HS 578T breast
UACC-62 melanoma = system: UACC-62 melanoma
EKVX NSCLC = system: EKVX NSCLC
UACC-257 melanoma = system: UACC-257 melanoma
NCI-H460 lung = system: NCI-H460 lung
HCT-116 colon = system: HCT-116 colon
OVCAR-4 ovarian = system: OVCAR-4 ovarian
ACHN renal = system: ACHN renal
SR leukemia = system: SR leukemia
OVCAR-3 ovarian = system: OVCAR-3 ovarian
HOP-62 NSCLC = system: HOP-62 NSCLC
SK-OV-3 ovarian = system: SK-OV-3 ovarian
SN12C renal = system: SN12C renal
DU-145 prostate = system: DU-145 prostate
NCI-H522 lung = system: NCI-H522 lung
RPMI-8226 leukemia = system: RPMI-8226 leukemia
MALME-3M melanoma = system: MALME-3M melanoma
786-0 renal = system: 786-0 renal
UO-31 renal = system: UO-31 renal
SNB-19 CNS = system: SNB-19 CNS
SF-295 CNS = system: SF-295 CNS
MDA-MB-435 = system: MDA-MB-435
SK-MEL-28 melanoma = system: SK-MEL-28 melanoma
HT29 colon = system: HT29 colon
SNB-75 CNS = system: SNB-75 CNS
A498 renal = system: A498 renal
SW-620 colon = system: SW-620 colon
TK-10 renal = system: TK-10 renal
COLO 205 colon = system: COLO 205 colon
HL-60(TB) leukemia = system: HL-60(TB) leukemia
MCF7 breast = system: MCF7 breast
NCI-H226 lung = system: NCI-H226 lung
IGROV1 ovarian = system: IGROV1 ovarian

What does the source list for `COc1cccc(-c2nn(-c3ccccc3)cc2-c2ccnc(NCCNC(=O)Nc3cccc(C(F)(F)F)c3)c2)c1`?
GI50 (SK-MEL-2 melanoma): 1690 nM; TGI (SK-MEL-2 melanoma): 3.6 µM; GI50 (MDA-MB-231 breast): 1970 nM; TGI (MDA-MB-231 breast): 4.58 µM; GI50 (M14 melanoma): 2790 nM; TGI (M14 melanoma): 10.6 µM; GI50 (T-47D breast): 2230 nM; TGI (T-47D breast): 6.01 µM; GI50 (SF-268 CNS): 2000 nM; TGI (SF-268 CNS): 4.49 µM; GI50 (SK-MEL-5 melanoma): 1730 nM; TGI (SK-MEL-5 melanoma): 3.15 µM; GI50 (PC-3 prostate): 2020 nM; TGI (PC-3 prostate): 5.24 µM; GI50 (U251 CNS): 2280 nM; TGI (U251 CNS): 5.26 µM; GI50 (HCC-2998 colon): 1720 nM; TGI (HCC-2998 colon): 3.26 µM; GI50 (NCI-H23 lung): 1860 nM; TGI (NCI-H23 lung): 4.15 µM; GI50 (KM12 colon): 2080 nM; TGI (KM12 colon): 4.54 µM; GI50 (BT-549 breast): 3.4 µM; TGI (BT-549 breast): 13.1 µM; GI50 (CAKI-1 renal): 1950 nM; TGI (CAKI-1 renal): 5.62 µM; GI50 (K-562 leukemia): 2130 nM; TGI (K-562 leukemia): 4.83 µM; GI50 (RXF 393 renal): 1530 nM; TGI (RXF 393 renal): 3.03 µM; GI50 (HCT-15 colon): 1700 nM; TGI (HCT-15 colon): 3.71 µM; GI50 (HOP-92 NSCLC): 1460 nM; TGI (HOP-92 NSCLC): 3.28 µM; GI50 (OVCAR-8 ovarian): 3.3 µM; TGI (OVCAR-8 ovarian): 9.77 µM; GI50 (SF-539 CNS): 1750 nM; TGI (SF-539 CNS): 3.32 µM; GI50 (A549 NSCLC): 3.38 µM; TGI (A549 NSCLC): 11.5 µM; GI50 (MOLT-4 leukemia): 2020 nM; TGI (MOLT-4 leukemia): 4.81 µM; GI50 (LOX IMVI melanoma): 1640 nM; TGI (LOX IMVI melanoma): 2990 nM; GI50 (OVCAR-5 ovarian): 1510 nM; TGI (OVCAR-5 ovarian): 3.63 µM; GI50 (NCI/ADR-RES ovarian): 2220 nM; TGI (NCI/ADR-RES ovarian): 5.82 µM; GI50 (CCRF-CEM leukemia): 2460 nM; TGI (CCRF-CEM leukemia): 7 µM; GI50 (HS 578T breast): 1990 nM; TGI (HS 578T breast): 5.2 µM; GI50 (UACC-62 melanoma): 1850 nM; TGI (UACC-62 melanoma): 3.73 µM; GI50 (EKVX NSCLC): 2000 nM; TGI (EKVX NSCLC): 6.65 µM; GI50 (UACC-257 melanoma): 2140 nM; TGI (UACC-257 melanoma): 4.81 µM; GI50 (NCI-H460 lung): 2000 nM; TGI (NCI-H460 lung): 3.85 µM; GI50 (HCT-116 colon): 2880 nM; TGI (HCT-116 colon): 11.8 µM; GI50 (OVCAR-4 ovarian): 2360 nM; TGI (OVCAR-4 ovarian): 8.13 µM; GI50 (ACHN renal): 2910 nM; TGI (ACHN renal): 10.4 µM; GI50 (SR leukemia): 1910 nM; TGI (SR leukemia): 4.97 µM; GI50 (OVCAR-3 ovarian): 1990 nM; TGI (OVCAR-3 ovarian): 4.32 µM; GI50 (HOP-62 NSCLC): 2520 nM; TGI (HOP-62 NSCLC): 5.63 µM; GI50 (SK-OV-3 ovarian): 3.5 µM; TGI (SK-OV-3 ovarian): 12.2 µM; GI50 (SN12C renal): 1950 nM; TGI (SN12C renal): 4.06 µM; GI50 (DU-145 prostate): 4.16 µM; TGI (DU-145 prostate): 14.9 µM; GI50 (NCI-H522 lung): 1240 nM; TGI (NCI-H522 lung): 3.19 µM; GI50 (RPMI-8226 leukemia): 2230 nM; TGI (RPMI-8226 leukemia): 5.54 µM; GI50 (MALME-3M melanoma): 1760 nM; TGI (MALME-3M melanoma): 3.9 µM; GI50 (786-0 renal): 1930 nM; TGI (786-0 renal): 4.39 µM; GI50 (UO-31 renal): 1600 nM; TGI (UO-31 renal): 4.15 µM; GI50 (SNB-19 CNS): 3.12 µM; TGI (SNB-19 CNS): 11.9 µM; GI50 (SF-295 CNS): 1660 nM; TGI (SF-295 CNS): 3.28 µM; GI50 (MDA-MB-435): 1750 nM; TGI (MDA-MB-435): 3.38 µM; GI50 (SK-MEL-28 melanoma): 1830 nM; TGI (SK-MEL-28 melanoma): 3.77 µM; GI50 (HT29 colon): 1680 nM; TGI (HT29 colon): 3.47 µM; GI50 (SNB-75 CNS): 1620 nM; TGI (SNB-75 CNS): 12.5 µM; GI50 (A498 renal): 2490 nM; TGI (A498 renal): 8.37 µM; GI50 (SW-620 colon): 1910 nM; TGI (SW-620 colon): 3.81 µM; GI50 (TK-10 renal): 2740 nM; TGI (TK-10 renal): 11.9 µM; GI50 (COLO 205 colon): 1880 nM; TGI (COLO 205 colon): 3.78 µM; GI50 (HL-60(TB) leukemia): 1540 nM; TGI (HL-60(TB) leukemia): 4.23 µM; GI50 (MCF7 breast): 2070 nM; TGI (MCF7 breast): 4.89 µM; GI50 (NCI-H226 lung): 2070 nM; TGI (NCI-H226 lung): 5.32 µM; GI50 (IGROV1 ovarian): 2880 nM; TGI (IGROV1 ovarian): 9.34 µM
